The values that follow come from the Kinase Knowledgebase extract (Sharma et al. 2016).

One assay has as its target PIK3CG (human) (UniProt P48736). Kind of assay: Enzyme Assay.
For another assay, the target named is PIK3CD (Human) (UniProt O00329). Kind of assay: Enzyme Assay.
For a further assay, the target named is PIK3CA (human) (UniProt P42336). In words: Inhibition of PIK3CA Kinase Activity.
The target of another assay is PIK3CB (Human) (UniProt P42338). Kind of assay: Inhibition of PIK3CB Kinase Activity.
PIK3CB (Human), sequence (P42338 whole entry, looked up): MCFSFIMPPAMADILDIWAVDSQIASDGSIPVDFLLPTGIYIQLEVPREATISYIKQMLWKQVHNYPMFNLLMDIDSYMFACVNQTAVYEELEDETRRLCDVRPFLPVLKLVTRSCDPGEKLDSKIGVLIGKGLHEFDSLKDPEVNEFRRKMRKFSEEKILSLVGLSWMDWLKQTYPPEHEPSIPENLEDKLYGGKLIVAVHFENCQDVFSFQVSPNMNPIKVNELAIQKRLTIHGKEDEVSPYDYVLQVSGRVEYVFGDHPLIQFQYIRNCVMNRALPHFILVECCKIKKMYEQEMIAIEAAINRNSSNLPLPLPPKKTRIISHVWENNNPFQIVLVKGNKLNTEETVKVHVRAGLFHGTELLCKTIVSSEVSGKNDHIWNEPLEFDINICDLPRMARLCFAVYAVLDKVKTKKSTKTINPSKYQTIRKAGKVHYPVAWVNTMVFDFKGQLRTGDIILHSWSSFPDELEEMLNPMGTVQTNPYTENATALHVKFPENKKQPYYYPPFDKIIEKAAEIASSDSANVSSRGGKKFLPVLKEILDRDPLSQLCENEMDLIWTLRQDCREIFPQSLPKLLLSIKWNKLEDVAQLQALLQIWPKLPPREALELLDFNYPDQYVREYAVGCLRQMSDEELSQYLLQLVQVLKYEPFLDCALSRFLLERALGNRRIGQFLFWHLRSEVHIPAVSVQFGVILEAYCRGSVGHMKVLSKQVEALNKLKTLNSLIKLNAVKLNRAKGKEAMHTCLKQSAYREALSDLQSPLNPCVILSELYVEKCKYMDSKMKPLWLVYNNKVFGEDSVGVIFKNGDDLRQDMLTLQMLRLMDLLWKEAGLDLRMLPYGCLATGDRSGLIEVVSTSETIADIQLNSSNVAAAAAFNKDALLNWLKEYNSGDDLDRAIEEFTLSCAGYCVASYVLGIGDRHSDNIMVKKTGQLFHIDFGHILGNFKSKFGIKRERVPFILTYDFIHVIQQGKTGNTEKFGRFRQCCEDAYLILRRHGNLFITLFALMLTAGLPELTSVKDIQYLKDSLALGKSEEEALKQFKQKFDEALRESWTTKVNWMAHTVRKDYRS

PIK3CD (Human), sequence (O00329 whole entry, looked up): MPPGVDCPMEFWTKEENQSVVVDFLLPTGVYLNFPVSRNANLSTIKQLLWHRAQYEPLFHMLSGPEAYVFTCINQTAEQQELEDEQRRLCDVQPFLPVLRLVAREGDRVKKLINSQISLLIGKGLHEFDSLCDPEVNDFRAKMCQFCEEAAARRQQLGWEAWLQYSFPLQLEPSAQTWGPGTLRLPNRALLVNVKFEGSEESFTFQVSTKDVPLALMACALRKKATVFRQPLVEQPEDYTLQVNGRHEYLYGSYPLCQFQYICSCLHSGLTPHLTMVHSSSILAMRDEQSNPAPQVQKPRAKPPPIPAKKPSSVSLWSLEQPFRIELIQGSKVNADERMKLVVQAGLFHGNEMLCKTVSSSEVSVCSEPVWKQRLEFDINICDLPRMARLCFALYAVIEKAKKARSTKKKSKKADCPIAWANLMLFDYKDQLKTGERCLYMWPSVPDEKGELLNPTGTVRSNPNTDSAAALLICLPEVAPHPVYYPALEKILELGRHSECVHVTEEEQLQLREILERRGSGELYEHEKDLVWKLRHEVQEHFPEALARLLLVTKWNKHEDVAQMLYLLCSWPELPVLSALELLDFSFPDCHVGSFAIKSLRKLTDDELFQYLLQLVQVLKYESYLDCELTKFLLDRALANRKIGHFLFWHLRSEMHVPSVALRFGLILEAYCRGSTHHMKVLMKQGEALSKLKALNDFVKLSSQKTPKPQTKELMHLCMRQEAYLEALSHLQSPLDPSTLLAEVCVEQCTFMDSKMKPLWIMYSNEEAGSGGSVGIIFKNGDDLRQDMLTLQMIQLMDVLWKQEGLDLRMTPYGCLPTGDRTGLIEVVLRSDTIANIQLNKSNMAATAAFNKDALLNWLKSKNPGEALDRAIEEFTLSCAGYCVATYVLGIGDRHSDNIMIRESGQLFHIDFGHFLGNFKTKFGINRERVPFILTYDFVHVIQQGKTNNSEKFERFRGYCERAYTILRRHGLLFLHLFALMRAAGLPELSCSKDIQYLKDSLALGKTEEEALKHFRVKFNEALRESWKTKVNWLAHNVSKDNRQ
PIK3CG (human), sequence (P48736 whole entry, looked up): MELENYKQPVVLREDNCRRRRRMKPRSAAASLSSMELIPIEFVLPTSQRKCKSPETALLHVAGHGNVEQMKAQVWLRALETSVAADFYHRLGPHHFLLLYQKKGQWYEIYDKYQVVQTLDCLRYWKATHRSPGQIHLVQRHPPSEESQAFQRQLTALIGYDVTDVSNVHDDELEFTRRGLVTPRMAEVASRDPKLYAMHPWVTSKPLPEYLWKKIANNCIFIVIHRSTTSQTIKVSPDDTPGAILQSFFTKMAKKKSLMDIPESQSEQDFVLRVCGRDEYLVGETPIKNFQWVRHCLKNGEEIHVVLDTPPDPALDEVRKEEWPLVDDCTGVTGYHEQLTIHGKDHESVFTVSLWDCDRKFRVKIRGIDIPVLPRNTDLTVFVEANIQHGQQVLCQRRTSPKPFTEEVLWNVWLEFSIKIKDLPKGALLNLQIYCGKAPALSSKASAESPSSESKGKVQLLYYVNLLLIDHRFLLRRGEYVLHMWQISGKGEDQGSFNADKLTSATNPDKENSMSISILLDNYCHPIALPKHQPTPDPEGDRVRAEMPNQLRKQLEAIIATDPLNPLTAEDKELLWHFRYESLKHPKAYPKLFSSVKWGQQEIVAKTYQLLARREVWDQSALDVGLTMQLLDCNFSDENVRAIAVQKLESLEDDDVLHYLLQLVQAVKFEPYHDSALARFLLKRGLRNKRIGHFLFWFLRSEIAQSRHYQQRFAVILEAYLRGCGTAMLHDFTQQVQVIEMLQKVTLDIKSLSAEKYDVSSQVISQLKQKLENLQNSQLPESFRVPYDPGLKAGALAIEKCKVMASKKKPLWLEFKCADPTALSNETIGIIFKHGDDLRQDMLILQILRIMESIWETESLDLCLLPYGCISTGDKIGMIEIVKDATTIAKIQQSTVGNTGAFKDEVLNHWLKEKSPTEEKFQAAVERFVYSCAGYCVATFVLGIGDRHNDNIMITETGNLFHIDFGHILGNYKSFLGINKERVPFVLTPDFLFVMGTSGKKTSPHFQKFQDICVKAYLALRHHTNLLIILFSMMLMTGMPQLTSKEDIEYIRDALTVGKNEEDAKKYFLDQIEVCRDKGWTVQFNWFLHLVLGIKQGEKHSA
PIK3CA (human), sequence (P42336 whole entry, looked up): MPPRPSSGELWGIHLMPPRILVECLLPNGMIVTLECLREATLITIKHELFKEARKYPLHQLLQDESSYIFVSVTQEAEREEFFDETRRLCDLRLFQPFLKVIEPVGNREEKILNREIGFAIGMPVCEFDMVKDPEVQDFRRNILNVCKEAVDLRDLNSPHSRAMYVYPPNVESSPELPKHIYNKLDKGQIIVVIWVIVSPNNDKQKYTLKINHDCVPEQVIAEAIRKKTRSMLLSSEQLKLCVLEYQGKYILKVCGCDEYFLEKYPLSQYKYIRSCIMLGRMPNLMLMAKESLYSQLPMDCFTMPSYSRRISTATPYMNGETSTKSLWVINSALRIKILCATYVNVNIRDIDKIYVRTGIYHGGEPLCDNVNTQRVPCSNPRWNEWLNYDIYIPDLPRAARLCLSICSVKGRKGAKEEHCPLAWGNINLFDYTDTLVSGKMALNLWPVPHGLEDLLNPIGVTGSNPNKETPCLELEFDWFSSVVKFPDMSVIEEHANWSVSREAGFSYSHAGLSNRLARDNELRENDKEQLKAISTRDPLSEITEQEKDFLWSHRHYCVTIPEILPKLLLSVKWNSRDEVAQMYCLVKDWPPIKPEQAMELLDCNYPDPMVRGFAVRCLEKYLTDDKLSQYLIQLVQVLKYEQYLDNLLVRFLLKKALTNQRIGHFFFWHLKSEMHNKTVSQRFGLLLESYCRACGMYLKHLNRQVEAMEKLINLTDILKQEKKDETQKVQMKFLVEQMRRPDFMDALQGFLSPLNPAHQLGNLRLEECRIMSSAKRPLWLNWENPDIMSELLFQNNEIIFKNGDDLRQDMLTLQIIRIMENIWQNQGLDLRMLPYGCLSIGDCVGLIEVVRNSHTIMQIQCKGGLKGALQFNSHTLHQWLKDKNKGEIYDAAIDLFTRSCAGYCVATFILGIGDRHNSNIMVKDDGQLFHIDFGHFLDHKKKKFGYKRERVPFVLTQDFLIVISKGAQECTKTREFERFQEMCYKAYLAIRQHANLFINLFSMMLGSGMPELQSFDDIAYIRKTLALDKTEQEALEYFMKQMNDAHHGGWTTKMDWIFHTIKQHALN

As to `CNC(=O)Nc1nc2ccc(-c3nn(C(C)C)c4ncnc(N)c34)cc2s1`, the half-maximal inhibitory concentration (IC50) at PIK3CG (human), at PIK3CD (Human) and against PIK3CA (human) was no more than 50 nM in each case.
In the case of `CCn1nc(-c2ccc3nc(NC(C)=O)sc3c2)c2c(N)ncnc21`, the IC50 at PIK3CG (human) was no more than 50 nM; on PIK3CD (Human), no more than 50 nM; against PIK3CA (human), 50 to 100 nM.
In the case of `CNC(=O)Nc1nc2ccc(-c3cn(C4CCN(C(C)=O)CC4)c4ncnc(N)c34)cc2s1`, the IC50 against PIK3CG (human) is no more than 50 nM; against PIK3CD (Human), no more than 50 nM; on PIK3CA (human), no more than 50 nM; at PIK3CB (Human), 50 to 100 nM.
For the molecule `CC(=O)Nc1nc2ccc(-c3nn(C4CCCC4)c4ncnc(N)c34)cc2s1`, the IC50 against PIK3CG (human), on PIK3CD (Human) and on PIK3CA (human) was no more than 50 nM in each case.
For `CNc1nc2ccc(-c3nn(C(C)C)c4ncnc(N)c34)cc2s1`, the IC50 at PIK3CG (human) is no more than 50 nM; against PIK3CD (Human) it was 100 to 500 nM; at PIK3CA (human), 50 to 100 nM.
On to `CC(C)n1nc(-c2cc3cc(O)cc(F)c3[nH]2)c2c(N)ncnc21`, for which the IC50 against PIK3CG (human) is 100 to 500 nM; against PIK3CD (Human), 50 to 100 nM.
Regarding `CC(=O)Nc1nc2ccc(-c3nn(C)c4ncnc(N)c34)cc2s1`, the half-inhibitory concentration (IC50) against PIK3CA (human) was in the range of 500 to 1000 nM.
Regarding `CC(=O)Nc1nc2ccc(-c3nn(C4CCOCC4)c4ncnc(N)c34)cc2s1`, the IC50 at PIK3CG (human) was no more than 50 nM; at PIK3CD (Human), no more than 50 nM; against PIK3CA (human), 100 to 500 nM.
With `CCNc1nc2ccc(-c3nn(C(C)C)c4ncnc(N)c34)cc2s1`, the IC50 at PIK3CG (human) lay in the range of 100 to 500 nM; against PIK3CD (Human), 500 to 1000 nM; against PIK3CA (human) it was 100 to 500 nM.
Take `CC(C)n1nc(-c2cc3ccc(O)cc3[nH]2)c2c(N)ncnc21`: the IC50 at PIK3CG (human), against PIK3CD (Human) and against PIK3CA (human) was 100 to 500 nM throughout.
As for `CNC(=O)Nc1nc2ccc(-c3cn(C4CCOCC4)c4ncnc(N)c34)cc2s1`, the IC50 at PIK3CG (human), on PIK3CD (Human), at PIK3CA (human) and on PIK3CB (Human) was no more than 50 nM throughout.
Take `CC(C)n1nc(-c2ccc3nc(N)sc3c2)c2c(N)ncnc21`: the IC50 at PIK3CG (human) was no more than 50 nM; at PIK3CD (Human) it was 50 to 100 nM; at PIK3CA (human) it was 100 to 500 nM.
`CCC(=O)Nc1nc2ccc(-c3nn(C(C)C)c4ncnc(N)c34)cc2s1` returned an IC50 against PIK3CA (human) of 100 to 500 nM.
Take `CNC(=O)Nc1nc2ccc(-c3cn(C(C)C)c4ncnc(N)c34)cc2s1`: the 50% inhibitory concentration (IC50) against PIK3CG (human), against PIK3CD (Human), against PIK3CA (human) and at PIK3CB (Human) was no more than 50 nM in each case.
At PIK3CA (human), `CC(C)n1nc(-c2ccc3nc(NC(=O)C4CC4)sc3c2)c2c(N)ncnc21` displayed an IC50 of 500 to 1000 nM.
Take `CC(=O)Nc1nc2ccc(-c3nn(C(C)C)c4ncnc(N)c34)cc2s1`: the IC50 is no more than 50 nM on PIK3CG (human), no more than 50 nM against PIK3CD (Human) and 100 to 500 nM on PIK3CA (human).
As for `CC(C)n1nc(-c2cc3cccc(O)c3[nH]2)c2c(N)ncnc21`, the IC50 on PIK3CG (human) and against PIK3CD (Human) was 100 to 500 nM in each case.
In the case of `CC(C)n1nc(-c2cc3cc(O)cc(Cl)c3[nH]2)c2c(N)ncnc21`, the IC50 against PIK3CG (human) and against PIK3CD (Human) was 25 to 50 nM in each case.
Consider `CC(=O)Nc1nc2ccc(-c3nn(C4CCC4)c4ncnc(N)c34)cc2s1`, for which the IC50 against PIK3CG (human) is no more than 50 nM; against PIK3CD (Human) it was 50 to 100 nM; against PIK3CA (human) it was 50 to 100 nM.
At PIK3CA (human), `CC(C)n1nc(-c2ccc3nc(NCCO)sc3c2)c2c(N)ncnc21` registered an IC50 of 500 to 1000 nM.

What is called IC50 is the concentration at which inhibition is half-maximal. Low readings indicate greater potency in that assay, high ones weaker potency in that assay.
